{"source": "patent US9745341B2", "about": "“Tubulysins and processes for preparing” (priority 2007, dated 2017)", "tested_on": "folate receptor-positive KB cells", "assay": "In vitro concentration-dependent cytotoxic activity (3H-thymidine incorporation)", "assay_type": "cell-based", "conditions": "for IC50: Homo sapiens, KB, read-out: Cytotoxicity IC50 (nM); for pIC50: concentration required to reduce 3H-thymidine incorporation into newly synthesized DNA by 50%, 2 h pulse at 37° C., chase up to 70 h, read-out: Cytotoxicity IC50", "method": "The compounds described herein are evaluated using an in vitro cytotoxicity assay that predicts the ability of the drug to inhibit the growth of folate receptor-positive KB cells. The KB cells are exposed for up to 7 h at 37° C. over a range of concentrations of folate-drug conjugate in the absence or presence of at least a 100-fold excess of folic acid. The cells are then rinsed once with fresh culture medium and incubated in fresh culture medium for 72 hours at 37° C. Cell viability is assessed using a ^3H-thymidine incorporation assay.\nCells were heavily seeded in 24-well Falcon plates and allowed to form nearly confluent monolayers overnight. Thirty minutes prior to the addition of test article, spent medium was aspirated from all wells and replaced with fresh folate-free RPMI (FFRPMI). Note, designated wells received media containing 100 μM folic acid; and, cells within the latter wells were used to determine the targeting specificity, since cytotoxic activity produced in the presence of excess folic acid (enables competition for FR binding) would signify the portion of the total activity that was unrelated to FR-specific delivery. Following one rinse with 1 mL of fresh FFRPMI containing 10% heat-inactivated fetal calf serum, each well received 1 mL of media containing increasing concentrations of test article (4 wells per sample) in the presence or absence of 100 μM free folic acid (a binding site competitor). Treated cells were pulsed for 2 h at 37° C., rinsed 4 times with 0.5 mL of media, and then chased in 1 mL of fresh media up to 70 h. Spent media was aspirated from all wells and replaced with fresh media containing 5 μCi/mL ^3H-thymidine. Following a further 2 h 37° C. incubation, cells were washed 3 times with 0.5 mL of PBS and then treated with 0.5 mL of ice-cold 5% trichloroacetic acid per well. After 15 min, the trichloroacetic acid was aspirated and the cell material solubilized by the addition of 0.5 mL of 0.25 N sodium hydroxide for 15 min. Four hundred and fifty μL of each solubilized sample were transferred to scintillation vials containing 3 mL of Ecolume scintillation cocktail and then counted in a liquid scintillation counter. Final results are expressed as the percentage of ^3H-thymidine incorporation relative to untreated controls.\nAs shown in the following table, dose-dependent cytotoxicity is measurable, and in most cases, the IC50 values (concentration of drug conjugate required to reduce ^3H-thymidine incorporation into newly synthesized DNA by 50%) are in the low nanomolar range.", "note": "pIC50: −log10 of the molar value. Read-outs that look alike come from different tables or passages of the source."}
{"molecule": "CCC(C)[C@H](NC(=O)[C@H]1CCCCN1C)C(=O)N(CO)[C@H](C[C@@H](OC(C)=O)c1nc(C(=O)N[C@@H](Cc2ccc(O)cc2)C[C@H](C)C(=O)O)cs1)C(C)C", "note": "(stereo partly drawn) [EC0386]", "values": [{"measurement": "IC50", "value": 42, "unit": "nM"}]}
{"molecule": "CC[C@H](C)[C@H](NC(=O)[C@H]1CCCCN1C)C(=O)N(COC(=O)CC(C)C)[C@H](C[C@@H](OC(C)=O)c1nc(C(=O)N[C@@H](Cc2ccc(O)cc2)C[C@H](C)C(=O)O)cs1)C(C)C", "note": "[Tubulysin A, reference compound]", "values": [{"measurement": "pIC50", "value": 8.70}]}
{"molecule": "Tubulysin B [reference compound]", "values": [{"measurement": "pIC50", "value": 8.59}]}
{"molecule": "CCCSCN(C(=O)[C@@H](NC(=O)[C@H]1CCCCN1C)C(C)CC)[C@H](C[C@@H](OC(C)=O)c1nc(C(=O)N[C@@H](Cc2ccc(O)cc2)C[C@H](C)C(=O)O)cs1)C(C)C", "note": "(stereo partly drawn) [EC0623]", "values": [{"measurement": "IC50", "value": 0.48, "unit": "nM"}]}
{"molecule": "CCC(C)[C@H](NC(=O)[C@H]1CCCCN1C)C(=O)N(COCCO)[C@H](C[C@@H](OC(C)=O)c1nc(C(=O)N[C@@H](Cc2ccc(O)cc2)C[C@H](C)C(=O)O)cs1)C(C)C", "note": "(stereo partly drawn) [EC0346, 2-Hydroxyethoxy Tubulysin]", "values": [{"measurement": "IC50", "value": 18, "unit": "nM"}]}
{"molecule": "CCC(C)[C@H](NC(=O)[C@H]1CCCCN1C)C(=O)N(CSCCS)[C@H](C[C@@H](OC(C)=O)c1nc(C(=O)N[C@@H](Cc2ccc(O)cc2)C[C@H](C)C(=O)O)cs1)C(C)C", "note": "(stereo partly drawn) [EC0374, 2-Mercaptoethylthio Tubulysin]", "values": [{"measurement": "IC50", "value": 24, "unit": "nM"}]}
{"molecule": "C=CCCN(C(=O)[C@@H](NC(=O)[C@H]1CCCCN1C)C(C)CC)[C@H](C[C@@H](OC(C)=O)c1nc(C(=O)N[C@@H](Cc2ccc(O)cc2)C[C@H](C)C(=O)O)cs1)C(C)C", "note": "(stereo partly drawn) [EC0550, N-Homoallyl Tubulysin]", "values": [{"measurement": "IC50", "value": 2, "unit": "nM"}]}
{"molecule": "CCC(C)[C@H](NC(=O)[C@H]1CCCCN1C)C(=O)N(COC)[C@H](C[C@@H](OC(C)=O)c1nc(C(=O)N[C@@H](Cc2ccc(O)cc2)C[C@H](C)C(=O)O)cs1)C(C)C", "note": "(stereo partly drawn) [EC0313, Methoxy Tubulysin]", "values": [{"measurement": "IC50", "value": 9, "unit": "nM"}]}
{"molecule": "CCC(C)[C@H](NC(=O)[C@H]1CCCCN1C)C(=O)N(COCCC(C)C)[C@H](C[C@@H](OC(C)=O)c1nc(C(=O)N[C@@H](Cc2ccc(O)cc2)C[C@H](C)C(=O)O)cs1)C(C)C", "note": "(stereo partly drawn) [EC0356]", "values": [{"measurement": "IC50", "value": 12, "unit": "nM"}]}
